# Read-outs that look alike come from different tables or passages of the source. Peptide text beside a SMILES is read from it. * marks the point of attachment. X1 = CCCCCCCCCCCCCCCC(=O)OC[C@H](COP(=O)([O-])OCC[N+](C)(C)C)O*
# What was measured:
# [1] = biological target: bee-venom phospholipase A2 (Apis mellifera, UniProt P00630); type: biochemical
# membrane fusion = conditions: ref Epand, 2003; cited from earlier work
# bee-venom phospholipase A2, sequence (P00630 34-167 limits assumed): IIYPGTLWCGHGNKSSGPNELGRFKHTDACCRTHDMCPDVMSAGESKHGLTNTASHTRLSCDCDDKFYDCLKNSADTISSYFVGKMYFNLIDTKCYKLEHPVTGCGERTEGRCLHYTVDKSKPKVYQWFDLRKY
Compound,time to complete hydrolysis by PLA2 [1] [min],time to complete hydrolysis by PLA2 ([1]; 40°C) [min],time to complete hydrolysis by PLA2 ([1]; pH 8.5) [min],hydrolysis by bee-venom PLA2 (result in words) [1],antiviral action by inhibition of membrane fusion (membrane fusion)
"CCCCCCCCCCCCCCCC(=O)OC[C@H](COP(=O)([O-])OCC[N+](C)(C)C)OC(=O)CCCCCCCCCCCCCCC [DPPC, dipalmitoyl phosphatidylcholine, reference compound]",10,≤ 90,10,–,–
"CCCCCCCCCCCCCCCC(=O)OC[C@H](COP(=O)([O-])OCC[N+](C)(C)C)OC(=O)CNC(=O)CNC(=O)[C@@H]1CCCN1C(=O)CN.Cl [compound 10, 1-Palmitoyl-2-(gly-pro-gly-gly)-sn-glycero-3-phosphocholine hydrochloride] (H-GPGG-X1)",–,–,≤ 90,completely hydrolyzed,–
"CCCCCCCCCCCCCCCC(=O)OC[C@H](COP(=O)([O-])OCC[N+](C)(C)C)OC(=O)CNC(=O)[C@H](Cc1ccccc1)NC(=O)[C@@H](Cc1ccccc1)NC(=O)OCc1ccccc1 [compound 13, 1-Palmitoyl-2-(CBZ-D-phe-phe-gly)-sn-glycero-3-phosphocholine]",–,–,≤ 90,completely hydrolyzed,–
"CCCCCCCCCCCCCCCC(=O)OC[C@H](COP(=O)([O-])OCC[N+](C)(C)C)OC(=O)CNC(=O)OC(C)(C)C [compound 14, 1-palmitoyl-2-(N-BOC-glycyl)-sn-glycero-3-phosphocholine]",20,–,–,readily hydrolyzed,–
carbobenzoxy-D-Phe-Phe-Gly [compound 5],–,–,–,–,blocking viral infection by inhibiting membrane fusion
